Experiment [1] deals with IRP2−/− mice. The experiment in a line: Hang-test of IRP2−/− mice on Tempo1-supplemented diet. In kind it is in vivo. The text has this:
Mice: IRP2−/− mice were generated, propagated by breeding and genotyped as described in LaVaute et al., Nature Genetics, 27, 209-214 (2001). Mice used in this study have a 129S4/SvJae X C57B1/6 mixed background (specific proportions of each strain are not known). In experiments with mice of same genotype but on different diets siblings were used to minimize phenotypic variation due to differences in genetic background. Mice of different genotypes and on different diets were age and sex matched. All protocols were approved by the National Institute of Child Health and Human Development Animal Care and Use Committee, and met US National Institutes of Health guidelines for the humane care of animals. […]
Hang-test: In the hang-test, mice were allowed to grip a wire mesh that was then inverted. The length of time that a mouse could hang on to an inverted wire mesh before falling (up to a maximum of 60 seconds) was measured and recorded.
A stable nitroxide radical, Tempo1, was administered as a dietary supplement to knockout mice (IRP2−/−), and neurodegeneration was tested using the “hang test,” by which mice were allowed to grasp a wire mesh screen in an inverted position and the length of time that the mice could remain grasping the screen was measured (up to a maximum of 60 seconds). The hang test quantitatively assesses the progression of neurodegeneration in mice. […]

Experiment [2] deals with IRP2−/− mice. Description: Hematocrit (anemia) of IRP2−/− mice on Tempo1 diet. The experiment is classed as in vivo. As to the method:
Diet: The mice were weaned 3-4 weeks after their birth. Immediately after weaning, mice were maintained on either a Tempo1-supplemented or control diet. In the Tempo1-supplemented diet, powdered Tempo1 was uniformly mixed with bacon-flavored mouse chow by a “cold press” technique (Bio-Serv, Frenchtown, N.J., USA) at a concentration of 10 mg/g of food. Bacon-flavored chow without Tempo1 was used as the control diet.

A further experiment has as its system TfR1. The experiment in a line: Western blot of TfR1 in IRP2−/− embryonic fibroblasts. In kind it is cell-based, mouse. The settings on record: 0.3 and 1.0 mM, 16 h, with or without FAC. As to the method: Cells: Embryonic fibroblasts of 13-day old embryos were isolated from wild type, IRP1−/− mice and IRP2−/− mice as described in LaVaute et al. supra. Myc-tagged HEK 293 Tet-on cell line, in which IRP2 expression was inducible, was prepared and cultured as described Bourdon et al., Blood Cells Mol Dis, 31, 247-255 (2003). Erythroblasts were harvested from bone marrow and purified as described in Cooperman et al., Blood, 106, 1084-1091 (2005).
Western blotting and antibodies: Protein analysis was carried out as described in LaVaute et al., supra. Equal amounts of protein (20-40 μg/lane) were separated on 13% SDSPAGE and transferred to nitrocellulose membranes. The membrane was blocked with 5% non-fat milk, 0.1% Triton X-100 in PBS and probed at RT in the same blocking buffer. IRP1 antibody was prepared against purified hIRP1 and used at 1:5000 dilution. L-ferritin antibody was raised in rabbit from L-ferritin protein purified from mouse livers. […]
To study the effect of Tempo1 on the IRE-binding activity of IRP1, IRP2−/− embryonic fibroblasts that were maintained in culture supplemented with 0, 0.3 and 1.0 mM Tempo1, with or without ferric ammonium citrate (FAC), for 16 h. […] Quantification was performed with the IQMac (IRP1 activity) or NIH Image (protein levels) program. Error bars represent the standard deviation calculated from the results of two different sets of experiments.

Consider `CC1(C)CC(O)CC(C)(C)N1[O]` [Tempo1], for which, in the experiment on IRP2−/− mice [1] (IRP2−/− mice on Tempo1 supplemented diet (10 mg/g of food) vs untreated knockout mice, max 60 seconds), the hang times entry is “substantially increased”. Also, the “protection from progressive loss of neuromuscular capability” value in the experiment with IRP2−/− mice [1] (IRP2−/− mice on Tempo1 supplemented diet, hang test, FIG. 1c) is given as “significantly (p value=0.009) protected”. Besides, the hematocrit in the experiment on IRP2−/− mice [2] (IRP2−/− mice after 8 months of Tempo1 diet (untreated IRP2−/− 46±5, WT 52±2)) is 46±4. Moreover, in the experiment on IRP2−/− mice [2] (IRP2−/− mice treated with Tempo1), the “mild anemia of IRP2−/− mice” value was “did not improve”. Further, the TfR1 levels result in the experiment with TfR1 was “increased”.

These data come from patent publication US20100179188A1, “NITROXIDE RADICAL AS TREATMENT FOR NEURODEGENERATION” (Office of Technology Transfer, NIH, priority 2007, published 2010).
